The test system of test [1] is basal IOP in rabbits. Kind of test: Basal IOP in rabbits, topical administration. To be noted: for effect on lowering basal IOP: one drop of 1 mM solution, other eye PBS. The class given is in vivo, rabbit.
Test [2] has as its system Na,K-ATPase in bovine ciliary NPE cells. The test is described as follows: biochemical. Conditions: 1 site model; read-out: Ki, nM ± SEM.
Test [3] relates to Na,K-ATPase isoforms α1, α2, α3. To be noted: cited from earlier work.
Test [4] concerns the target human Na,K-ATPase α2β3FXYD1 (Homo sapiens (Human), UniProt P50993+P54709). The test is described as follows: biochemical. In kind it is biochemical.
Test [5] has as its target human Na,K-ATPase α1β1FXYD1 (Homo sapiens (Human), UniProt P05023). The class given is biochemical. To be noted: for Ki: read-out: Ki in nM ± SEM α1β1.
For test [6], the target named is human Na,K-ATPase α2β1FXYD1 (Homo sapiens, UniProt P50993). The class given is biochemical. To be noted: read-out: Ki in nM ± SEM α2β1.
For test [7], the system named is human Na,K-ATPase α2β1FXYD1. In kind it is biochemical.
Test [8] deals with human Na,K-ATPase α2β2FXYD1 (Homo sapiens (Human), UniProt P50993). In kind it is biochemical. To be noted: for Ki: read-out: Ki in nM ± SEM α2β2.
Test [9] has as its system 4AP-induced IOP in rabbits. The class given is in vivo, rabbit.

“Also recorded” adds a separate entry of the source. Like-named read-outs stand apart in the source and are kept apart here.

On to `C[C@H]1O[C@@H](O[C@H]2[C@@H](O)C[C@H](O[C@H]3[C@@H](O)C[C@H](O[C@H]4CC[C@@]5(C)[C@H](CC[C@@H]6[C@@H]5C[C@@H](O)[C@]5(C)[C@@H](C7=CC(=O)OC7)CC[C@]65O)C4)O[C@@H]3C)O[C@@H]2C)C[C@H](O)[C@@H]1O` [Digoxin, digoxin, reference compound], for which, in test [1], the “effect on lowering basal IOP” value was “lack of effect; also recorded: neither digoxin nor DiB had a significant effect”. Further, in test [2], the Ki is 91.7 ± 10.2 nM. For the same compound, the “lower Ki values for α2 compared to α1” value in test [3] was 3-4 fold.

`CC1CN(C)CCC(O[C@@H]2[C@H](C)O[C@@H](O[C@@H]3[C@H](C)O[C@@H](O[C@H]4CC[C@@]5(C)C(CCC6C5C[C@H](O)[C@]5(C)[C@@H](C7=CC(=O)OC7)CC[C@]65O)C4)C[C@@H]3O)C[C@@H]2O)O1` (stereo partly shown) [DMe]: the “Selectivity Ki ratio α1β1/α2β3” value in [4] came out at 9.5. The Ki in test [4] (read-out: Ki in nM ± SEM α2β3) amounted to 10.8 ± 0.6 nM; in test [5] it was 103 ± 5.6 nM; in test [2], 15.6 ± 1.3 nM; in [6], 15.3 ± 1.2 nM; in [8], 20.4 ± 1.8 nM. In test [7], the “Selectivity Ki ratio α1β1/α2β1” value amounted to 6.7. In addition, the “Selectivity Ki ratio α1β1/α2β2” value in test [8] came to 5.1.

On to `C[C@H]1O[C@@H](O[C@H]2[C@@H](O)C[C@H](O[C@H]3[C@@H](O)C[C@H](O[C@H]4CC[C@@]5(C)[C@H](CC[C@@H]6[C@@H]5CC[C@]5(C)[C@@H](C7=CC(=O)OC7)CC[C@]65O)C4)O[C@@H]3C)O[C@@H]2C)C[C@H](O)[C@@H]1O` [Digitoxin, digitoxin], for which the “lower Ki values for α2 compared to α1” value in test [3] is 3-4 fold.

Take `CC1CN(C2CCCC2)CCC(O[C@@H]2C(C)O[C@@H](OC3C(C)OC(O[C@H]4CC[C@@]5(C)C(CCC6C5CC(O)[C@]5(C)[C@@H](C7=CC(=O)OC7)CC[C@]65O)C4)C[C@@H]3O)C[C@@H]2O)O1` (stereo in doubt) [DcPe, 4-((3S,5R,8R,9S,10S,12R,13S,14S,17R)-3-(((2S,4S,5R,6R)-5-(((2S,4S,5S,6R)-5-((4-cyclopentyl-2-methyl-1,4-oxazepan-7-yl)oxy)-4-hydroxy-6-methyltetrahydro-2H-pyran-2-yl)oxy)-4-hydroxy-6-methyltetrahydro-2H-pyran-2-yl)oxy)-12,14-dihydroxy-10,13-dimethylhexadecahydro-1H-cyclopenta[a]phenanthren-17-yl)furan-2(5H)-one]: the “Selectivity Ki ratio α1β1/α2β3” value in test [4] was 5. Also, the “selectivity for α2β3 over α1β1 (Ki α1β1:α2β3 ratio)” value (“selectivity … (Ki α1β1:α2β3 ratio)” for short) in [4] is 10-12 fold. Also, the Ki in test [4] (read-out: Ki in nM ± SEM α2β3) was found to be 27.6 ± 9.5 nM; in [5], 138 ± 21 nM; in test [6], 33.4 ± 7.5 nM; in [8] it was 33.5 ± 11.9 nM. The “Selectivity Ki ratio α1β1/α2β1” value in test [7] was determined as 4.1. In addition, the “Selectivity Ki ratio α1β1/α2β2” value in test [8] came to 4.1.

Turning to `CC(C)CN1CCC(O[C@@H]2[C@H](C)O[C@@H](O[C@@H]3[C@H](C)O[C@@H](O[C@H]4CC[C@@]5(C)C(CCC6C5C[C@H](O)[C@]5(C)[C@@H](C7=CC(=O)OC7)CC[C@]65O)C4)C[C@@H]3O)C[C@@H]2O)OC(C)C1` (stereo partly shown) [DiB], in test [9] (10 μM), the “effect on 4AP-induced IOP” value is on record as “still effective”. In addition, in test [1], the “effect on lowering basal IOP” value was “lack of effect; also recorded: neither digoxin nor DiB had a significant effect”. Also, the inhibition constant Ki in test [5] was 92 nM; in test [6] it was 20.6 ± 1.4 nM.

Turning to `CCN1CCC(O[C@@H]2[C@H](C)O[C@@H](O[C@@H]3[C@H](C)O[C@@H](O[C@H]4CC[C@@]5(C)C(CCC6C5C[C@H](O)[C@]5(C)[C@@H](C7=CC(=O)OC7)CC[C@]65O)C4)C[C@@H]3O)C[C@@H]2O)OC(C)C1` (stereo partly shown) [DEt], the “Selectivity Ki ratio α1β1/α2β3” value in test [4] was 9.5. Besides, the inhibitory constant (Ki) in [4] (read-out: Ki in nM ± SEM α2β3) was determined as 14.4 ± 1.27 nM; in test [5] it was 138 ± 12.6 nM; in test [6], 23.2 ± 0.9 nM; in test [8], 16.4 ± 1.6 nM. Moreover, the “Selectivity Ki ratio α1β1/α2β1” value in test [7] was 5.9. For the same compound, in test [8], the “Selectivity Ki ratio α1β1/α2β2” value is given as 8.3.

With `CC1CN(CCS(N)(=O)=O)CCC(O[C@@H]2C(C)O[C@@H](OC3C(C)OC(O[C@H]4CC[C@@]5(C)C(CCC6C5CC(O)[C@]5(C)[C@@H](C7=CC(=O)OC7)CC[C@]65O)C4)C[C@@H]3O)C[C@@H]2O)O1` (stereo in doubt) [DESA, 2-(7-(((2R,3S,4S,6S)-6-(((2R,3R,4S,6S)-6-(((3S,5R,8R,9S,10S,12R,13S,14S,17R)-12,14-dihydroxy-10,13-dimethyl-17-(5-oxo-2,5-dihydrofuran-3-yl)hexadecahydro-1H-cyclopenta[a]phenanthren-3-yl)oxy)-4-hydroxy-2-methyltetrahydro-2H-pyran-3-yl)oxy)-4-hydroxy-2-methyltetrahydro-2H-pyran-3-yl)oxy)-2-methyl-1,4-oxazepan-4-yl)ethanesulfonamide], the “Selectivity Ki ratio α1β1/α2β3” value in test [4] is 15. For the same compound, the inhibition constant Ki in test [4] (read-out: Ki in nM ± SEM α2β3) was found to be 20.1 ± 0.9 nM; in test [5] it was 301 ± 23 nM; in test [6], 38.9 ± 2.2 nM; in [8], 31.5 ± 4.4 nM. In test [7], the “Selectivity Ki ratio α1β1/α2β1” value came to 7.7. In test [8], the “Selectivity Ki ratio α1β1/α2β2” value worked out at 9.5.

Turning to `CC1CN(C2CC2)CCC(O[C@@H]2[C@H](C)O[C@@H](O[C@@H]3[C@H](C)O[C@@H](O[C@H]4CC[C@@]5(C)C(CCC6C5C[C@H](O)[C@]5(C)[C@@H](C7=CC(=O)OC7)CC[C@]65O)C4)C[C@@H]3O)C[C@@H]2O)O1` (stereo partly drawn) [DcP, 4-((3S,5R,8R,9S,10S,12R,13S,14S,17R)-3-(((2R,4S,5S,6R)-5-(((2S,4S,5S,6R)-5((4-cyclopropyl-2-methyl-1,4-oxazepan-7-yl)oxy)-4-hydroxy-6-methyltetrahydro-2H-pyran-2-yl)oxy)-4-hydroxy-6-methyltetrahydro-2H-pyran-2-yl)oxy)-12,14-dihydroxy-10,13-dimethythylhexadecahydro-1H-cyclopenta[a]phenanthren-17-yl)furan-2(5H)-one], the “Selectivity Ki ratio α1β1/α2β3” value in [4] came out at 13.4. The Ki in test [4] (read-out: Ki in nM ± SEM α2β3) came out at 8.1 ± 1.36 nM; in test [5] it was 109 ± 6.2 nM; in [6], 14.6 ± 11.6 nM; in test [8], 13 ± 1.3 nM. Moreover, the “Selectivity Ki ratio α1β1/α2β1” value in test [7] was determined as 7.5. In addition, in test [8], the “Selectivity Ki ratio α1β1/α2β2” value is 8.5.

`CC1CN(CC2CC2)CCC(O[C@@H]2[C@H](C)O[C@@H](O[C@@H]3[C@H](C)O[C@@H](O[C@H]4CC[C@@]5(C)C(CCC6C5C[C@H](O)[C@]5(C)[C@@H](C7=CC(=O)OC7)CC[C@]65O)C4)C[C@@H]3O)C[C@@H]2O)O1` (stereo partly shown) [DMcP]: the “concentration that prevents the 4AP-induced rise in IOP” value in test [9] (one drop topically prior to 4AP) worked out at 0.01 mM. Moreover, the inhibition constant Ki in [4] was roughly 4 nM; in test [4] (read-out: Ki in nM ± SEM α2β3), 4.3 ± 0.6 nM; in test [5], 95.8 ± 13.7 nM; in [2] it was 7.9 ± 2.2 nM; in [6], 18.3 ± 1.6 nM; in test [8], 8 ± 0.8 nM. Moreover, the “Ki for α2β3 lower than for digoxin” value in [4] is listed as “about 10 fold”. The “Selectivity Ki ratio α1β1/α2β3” value in [4] is reported as 22.2. Also, the “selectivity … (Ki α1β1:α2β3 ratio)” value in test [4] is given as 22 fold. Also, the “effect on lowering basal IOP” value in test [1] is given as “notable effect”. Besides, the “reduction of basal IOP” value in test [1] (rabbit with a basal IOP of 17 mm Hg) was “about 4 mm Hg”; in test [1] (topical, test period of 4-5 hours), 20-25%. Also, the “Ki for α1β1 lower than for digoxin” value in [5] was 2-3 fold. Also, in test [7], the “Selectivity Ki ratio α1β1/α2β1” value is 5.2. Besides, the “Selectivity Ki ratio α1β1/α2β2” value in test [8] is recorded as 12.

Regarding `CC1CN(CS(C)(=O)=O)CCC(O[C@@H]2C(C)O[C@@H](OC3C(C)OC(O[C@H]4CC[C@@]5(C)C(CCC6C5CC(O)[C@]5(C)[C@@H](C7=CC(=O)OC7)CC[C@]65O)C4)C[C@@H]3O)C[C@@H]2O)O1` (stereo in doubt) [DMSM, 4-((3S,5R,8R,9S,10S,12R,13S,14S,17R)-12,14-dihydroxy-3-(((2S,4S,5R,6R)-4-hydroxy-5-(((2S,4S,5S,6R)-4-hydroxy-6-methyl-5-((2-methyl-4-((methylsulfonyl)methyl)-1,4-oxazepan-7-yl)oxy)tetrahydro-2H-pyran-2-yl)oxy)-6-methyltetrahydro-2H-pyran-2-yl)oxy)-10,13-dimethylhexadecahydro-1H-cyclopenta[a]phenanthren-17-yl)furan-2(5H)-one], in [4], the “Selectivity Ki ratio α1β1/α2β3” value came out at 10.6. Also, the inhibition constant Ki was 89 nM in test [4] (read-out: Ki in nM ± SEM α2β3), 944 ± 123 nM in test [5], 137 ± 9.8 nM in [6] and 123 ± 7.3 nM in test [8]. In test [7], the “Selectivity Ki ratio α1β1/α2β1” value was 6.9. Further, in test [8], the “Selectivity Ki ratio α1β1/α2β2” value was found to be 7.7.

On to `CC1CN(CCC2CC2)CCC(O[C@@H]2[C@H](C)O[C@@H](O[C@@H]3[C@H](C)O[C@@H](O[C@H]4CC[C@@]5(C)C(CCC6C5C[C@H](O)[C@]5(C)[C@@H](C7=CC(=O)OC7)CC[C@]65O)C4)C[C@@H]3O)C[C@@H]2O)O1` (stereo partly shown) [DEcP], for which the “Selectivity Ki ratio α1β1/α2β3” value in test [4] was determined as 12.02. Moreover, in test [4], the “selectivity … (Ki α1β1:α2β3 ratio)” value is 10-12 fold. Moreover, the Ki was 7.2 ± 1 nM in test [4] (read-out: Ki in nM ± SEM α2β3), 86.1 ± 7 nM in test [5], 14.3 ± 2 nM in test [6] and 12.1 ± 1.9 nM in test [8]. The “Selectivity Ki ratio α1β1/α2β1” value in test [7] was determined as 6.02. Besides, the “Selectivity Ki ratio α1β1/α2β2” value in test [8] was determined as 7.1.

The record behind these values is patent US10668094B2, “Selective inhibitors of Alpha2-containing isoforms of Na,K-ATPase and use thereof for reduction of intraocular pressure” (Yeda Research and Development Co. Ltd., priority 2015, dated 2020).
